We go through 4 compounds from BindingDB's records for doi:10.1016/s0968-0896(97)00172-7 (Universit&Agrave, 1997).

Assay [1] concerns the target Adenosine receptor A2a (Rattus norvegicus, UniProt P30543).
Assay [2] has as its target T1, Adenosine receptor A1 (Rattus norvegicus, UniProt P25099).
T1 sequence (P25099 whole entry): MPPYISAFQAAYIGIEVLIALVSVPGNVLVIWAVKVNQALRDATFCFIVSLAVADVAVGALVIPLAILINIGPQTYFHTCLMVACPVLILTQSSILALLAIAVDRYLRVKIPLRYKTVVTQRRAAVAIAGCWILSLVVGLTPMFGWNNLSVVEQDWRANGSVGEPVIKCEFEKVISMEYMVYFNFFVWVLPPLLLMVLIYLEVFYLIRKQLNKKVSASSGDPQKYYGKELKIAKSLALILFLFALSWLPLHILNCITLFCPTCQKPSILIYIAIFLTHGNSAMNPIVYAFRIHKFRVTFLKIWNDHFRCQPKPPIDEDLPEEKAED

As usually defined, the Ki is the equilibrium dissociation constant of an inhibitor or competing ligand from its target. Read a low Ki as higher affinity.

Sequence of Adenosine receptor A2a (P30543 whole entry): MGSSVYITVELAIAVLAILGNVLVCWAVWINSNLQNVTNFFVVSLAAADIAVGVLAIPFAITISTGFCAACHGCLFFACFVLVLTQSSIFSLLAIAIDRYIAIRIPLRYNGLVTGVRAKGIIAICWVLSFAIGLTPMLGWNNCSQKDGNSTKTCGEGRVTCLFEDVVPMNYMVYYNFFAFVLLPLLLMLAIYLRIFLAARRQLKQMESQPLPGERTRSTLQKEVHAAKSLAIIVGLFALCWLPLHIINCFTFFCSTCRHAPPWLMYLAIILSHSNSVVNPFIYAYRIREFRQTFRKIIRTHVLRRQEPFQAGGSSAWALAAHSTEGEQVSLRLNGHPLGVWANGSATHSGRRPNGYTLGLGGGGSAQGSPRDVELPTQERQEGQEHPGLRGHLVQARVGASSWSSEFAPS

For `CCNC(=O)[C@H]1OC(n2cnc3c(N)nc(C#CC(O)c4ccccc4)nc32)[C@@H](O)[C@H]1O` (stereo partly drawn) [5-[6-Amino-2-(3-hydroxy-3-phenyl-prop-1-ynyl)-purin-9-yl]-3,4-dihydroxy-tetrahydro-furan-2-carboxylic acid ethylamide], the Ki in assay [1] amounted to 2.6 nM; in assay [2] it was 5.9 nM.
For `CCCCC#Cc1nc(N)c2ncn([C@@H]3O[C@H](C(=O)NCC)[C@H](O)C3O)c2n1` (stereo partly drawn) [(2S,3R,5R)-5-[6-amino-2-(hex-1-yn-1-yl)-9H-purin-9-yl]-N-ethyl-3,4-dihydroxyoxolane-2-carboxamide] the same measures were 2.2 nM and 130 nM.
For the compound `CCNC(=O)C1OC(n2cnc3c(N)nc(C#CC(O)c4ccccc4)nc32)C(O)C1O` (stereo not drawn) [R,S-PHPNECA], the Ki in assay [1] turned out to be 0.9 nM; in assay [2], 2.5 nM.
Consider `CCNC(=O)[C@@H]1OC(n2cnc3c(N)nc(C#CC(O)c4ccccc4)nc32)[C@H](O)[C@@H]1O` (stereo partly drawn) [S-PHPNECA], for which the Ki in assay [1] is 0.5 nM; in assay [2], 4 nM.
